Laboratory results reported in US7989176B2, “Treating cancer” (Theryte Ltd., priority 2002, dated 2011).

Key:
[1] = test system: advanced gastric cancer; conditions: completed phase II study, patients with advanced gastric cancer (Kaubisch et al. 2000); cited from earlier work
[2] = test system: HCT116 cells; experiment: TUNEL assay for apoptosis (ApopTag kit); format: cell-based; conditions: 48 h after transfection
Method: (§1) Sense and antisense phosphorothionate oligonucleotide with the sequence set out in SEQ1 and SEQ2 respectively were synthesised in a 380B DNA synthesiser. Each oligonucleotide was premixed with lipofectin reagent and diluted in DMEM (Gibco). 6 cm plates of HCT116 cells at 40-50% confluence were rinsed once with 4 ml serum free DMEM and transfected with the oligonucleotides at a final concentration of 1 μM and the lipofectin reagent at a final concentration of 19 μg/ml according to the manufacturer's instructions (Life Technologies Inc., Gaithersburg, Md.). After 4 hours, Foetal Calf Serum (Gibco) was added to a final concentration of 10%. A lipofectin only transfection was performed as a control. Cell extracts were harvested after 48 h and examined by Western blot analysis with a pRb antibody. Equal loading of protein samples was confirmed by Coomassie blue staining or by immunoreactivity with an anti-actin antibody (Sigma). The intensities of the Rb bands were quantised with an image scanner (Molecular Dynamics). […] The treatment with the sense oligonucleotide led to about a 5% reduction in the level of pRb. […] Apoptosis in the cultures 48 h after transfection was tested for using the TUNEL assay. An in situ apoptosis detection kit ApopTag (Oncor, Gaithersburg, Md.) was used as recommended by the manufacturer. […]

[3] = test system: pRb; experiment: Western blot analysis of pRb expression after oligonucleotide transfection; format: cell-based; conditions: HCT116 cells, oligonucleotide 1 μM with lipofectin 19 μg/ml, extracts harvested after 48 h
Method: as §1

[4] = test system: HCT116 cells; experiment: Growth curves of transfected cultures; format: cell-based; conditions: oligonucleotide 1 μM
Method: as §1

Compound | clinical responses [1] | increase in apoptosis ([2]; versus lipofectin treated culture) | percentage of TUNEL positive cells ([2]; oligonucleotide 1 μM) | level of pRb expression relative to the control culture treated only with lipofectin [3] | effect on growth compared with the lipofectin-treated control culture [4]
CN1CC[C@H](c2c(O)cc(O)c3c(=O)cc(-c4ccccc4Cl)oc23)[C@H](O)C1 [flavopiridol] | no clinical responses were observed | – | – | – | –
antisense oligonucleotide: antisense phosphorothionate oligonucleotide to Rb, sequence SEQ2: 5′ -GGTTTTGGGCGGCATGAC-3′ (DNA, all phosphorothioate, methylation of C not given here) | – | > 10 fold | 18+/−0.5% | about 30% | growth inhibition
